Results as given in patent US20240024488A1, “COMPOUNDS AND USES THEREOF” (Foghorn Therapeutics Inc., priority 2020, published 2024).

Tests used:
HiBit-BRM fusion protein = target: T1, HiBit-BRM fusion protein (Homo sapiens, UniProt P51531); assay: HiBiT-BRM cell-based degradation assay (Nano-Glo HiBiT Lytic Detection, 24 h); conditions: HeLa cell line expressing HiBiT-BRM; for DC50: read-out: BRM HiBit Degradation IC50
T1 construct: expressed in transfected cells
Outline: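 Percent BRM loss was derived from HiBiT luminescence relative to DMSO-treated cells and cells given 2 μM of a known BRM/BRG1 degrader. Treatment lasted 24 h in HiBiT-BRM HeLa cells, with a top final concentration of 30 μM.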

[1] = target: T2, HiBit-BRG1 fusion protein (Homo sapiens, UniProt P51532); assay: HiBiT-BRG1 cell-based degradation assay (Nano-Glo HiBiT Lytic Detection, 24 h); conditions: HeLa cell line expressing HiBit-BRG1 and LgBit; for Dmax: read-out: BRG1 HiBit Degradation Maximum (%); for DC50: read-out: BRMG1 HiBit Degradation IC50
T2 construct: expressed in transfected cells
T2 sequence (P51532 whole entry, the tested form may be a part): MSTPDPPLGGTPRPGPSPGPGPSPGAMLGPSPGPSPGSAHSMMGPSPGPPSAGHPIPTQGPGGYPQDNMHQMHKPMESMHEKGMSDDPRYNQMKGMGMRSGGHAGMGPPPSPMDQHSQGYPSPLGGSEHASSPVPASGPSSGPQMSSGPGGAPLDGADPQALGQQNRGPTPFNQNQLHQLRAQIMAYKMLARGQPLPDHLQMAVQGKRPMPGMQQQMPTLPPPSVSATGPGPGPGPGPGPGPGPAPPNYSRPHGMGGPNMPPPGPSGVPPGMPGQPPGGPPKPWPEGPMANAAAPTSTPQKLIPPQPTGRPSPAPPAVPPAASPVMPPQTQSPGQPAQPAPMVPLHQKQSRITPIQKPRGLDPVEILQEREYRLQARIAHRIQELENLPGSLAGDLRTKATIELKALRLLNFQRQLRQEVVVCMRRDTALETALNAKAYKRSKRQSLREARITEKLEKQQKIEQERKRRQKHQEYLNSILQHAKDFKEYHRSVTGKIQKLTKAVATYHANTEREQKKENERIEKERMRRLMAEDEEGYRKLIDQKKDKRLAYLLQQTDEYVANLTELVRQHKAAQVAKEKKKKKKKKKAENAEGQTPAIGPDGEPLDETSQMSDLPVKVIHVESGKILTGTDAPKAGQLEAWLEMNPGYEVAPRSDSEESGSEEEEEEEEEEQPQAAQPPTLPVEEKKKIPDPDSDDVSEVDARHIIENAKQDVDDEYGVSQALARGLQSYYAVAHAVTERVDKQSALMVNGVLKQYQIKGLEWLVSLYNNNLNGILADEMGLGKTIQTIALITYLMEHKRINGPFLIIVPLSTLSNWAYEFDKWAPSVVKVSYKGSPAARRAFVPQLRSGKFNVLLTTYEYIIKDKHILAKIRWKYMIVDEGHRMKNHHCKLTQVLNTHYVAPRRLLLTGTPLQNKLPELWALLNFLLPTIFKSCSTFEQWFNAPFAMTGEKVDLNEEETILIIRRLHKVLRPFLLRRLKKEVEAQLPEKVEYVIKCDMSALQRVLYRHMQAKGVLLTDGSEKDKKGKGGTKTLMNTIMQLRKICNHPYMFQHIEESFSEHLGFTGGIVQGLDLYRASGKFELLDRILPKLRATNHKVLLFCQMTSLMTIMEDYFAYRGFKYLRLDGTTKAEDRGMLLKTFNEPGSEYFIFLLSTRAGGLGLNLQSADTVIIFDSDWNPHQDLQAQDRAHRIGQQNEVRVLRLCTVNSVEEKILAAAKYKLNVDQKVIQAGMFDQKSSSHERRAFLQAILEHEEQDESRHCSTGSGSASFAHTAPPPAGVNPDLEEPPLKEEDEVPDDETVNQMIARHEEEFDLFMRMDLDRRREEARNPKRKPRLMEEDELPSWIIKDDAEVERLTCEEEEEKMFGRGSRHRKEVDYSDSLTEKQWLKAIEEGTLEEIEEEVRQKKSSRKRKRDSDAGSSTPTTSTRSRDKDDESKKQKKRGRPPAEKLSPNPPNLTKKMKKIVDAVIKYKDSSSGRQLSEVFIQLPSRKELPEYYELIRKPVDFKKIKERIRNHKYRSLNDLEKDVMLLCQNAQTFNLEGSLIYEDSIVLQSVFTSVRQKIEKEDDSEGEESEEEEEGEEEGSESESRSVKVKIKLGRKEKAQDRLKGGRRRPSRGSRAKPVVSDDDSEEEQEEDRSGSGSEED
Outline: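 Percent degradation derived from lytic HiBiT signal, normalized to DMSO-treated cells and to cells given 2 μM of a known BRM/BRG1 degrader. The HeLa line stably expressed HiBit-BRG1 and LgBit; treatment lasted 24 h at 5000 cells per well.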

T1 sequence (P51531 whole entry, the tested form may be a part): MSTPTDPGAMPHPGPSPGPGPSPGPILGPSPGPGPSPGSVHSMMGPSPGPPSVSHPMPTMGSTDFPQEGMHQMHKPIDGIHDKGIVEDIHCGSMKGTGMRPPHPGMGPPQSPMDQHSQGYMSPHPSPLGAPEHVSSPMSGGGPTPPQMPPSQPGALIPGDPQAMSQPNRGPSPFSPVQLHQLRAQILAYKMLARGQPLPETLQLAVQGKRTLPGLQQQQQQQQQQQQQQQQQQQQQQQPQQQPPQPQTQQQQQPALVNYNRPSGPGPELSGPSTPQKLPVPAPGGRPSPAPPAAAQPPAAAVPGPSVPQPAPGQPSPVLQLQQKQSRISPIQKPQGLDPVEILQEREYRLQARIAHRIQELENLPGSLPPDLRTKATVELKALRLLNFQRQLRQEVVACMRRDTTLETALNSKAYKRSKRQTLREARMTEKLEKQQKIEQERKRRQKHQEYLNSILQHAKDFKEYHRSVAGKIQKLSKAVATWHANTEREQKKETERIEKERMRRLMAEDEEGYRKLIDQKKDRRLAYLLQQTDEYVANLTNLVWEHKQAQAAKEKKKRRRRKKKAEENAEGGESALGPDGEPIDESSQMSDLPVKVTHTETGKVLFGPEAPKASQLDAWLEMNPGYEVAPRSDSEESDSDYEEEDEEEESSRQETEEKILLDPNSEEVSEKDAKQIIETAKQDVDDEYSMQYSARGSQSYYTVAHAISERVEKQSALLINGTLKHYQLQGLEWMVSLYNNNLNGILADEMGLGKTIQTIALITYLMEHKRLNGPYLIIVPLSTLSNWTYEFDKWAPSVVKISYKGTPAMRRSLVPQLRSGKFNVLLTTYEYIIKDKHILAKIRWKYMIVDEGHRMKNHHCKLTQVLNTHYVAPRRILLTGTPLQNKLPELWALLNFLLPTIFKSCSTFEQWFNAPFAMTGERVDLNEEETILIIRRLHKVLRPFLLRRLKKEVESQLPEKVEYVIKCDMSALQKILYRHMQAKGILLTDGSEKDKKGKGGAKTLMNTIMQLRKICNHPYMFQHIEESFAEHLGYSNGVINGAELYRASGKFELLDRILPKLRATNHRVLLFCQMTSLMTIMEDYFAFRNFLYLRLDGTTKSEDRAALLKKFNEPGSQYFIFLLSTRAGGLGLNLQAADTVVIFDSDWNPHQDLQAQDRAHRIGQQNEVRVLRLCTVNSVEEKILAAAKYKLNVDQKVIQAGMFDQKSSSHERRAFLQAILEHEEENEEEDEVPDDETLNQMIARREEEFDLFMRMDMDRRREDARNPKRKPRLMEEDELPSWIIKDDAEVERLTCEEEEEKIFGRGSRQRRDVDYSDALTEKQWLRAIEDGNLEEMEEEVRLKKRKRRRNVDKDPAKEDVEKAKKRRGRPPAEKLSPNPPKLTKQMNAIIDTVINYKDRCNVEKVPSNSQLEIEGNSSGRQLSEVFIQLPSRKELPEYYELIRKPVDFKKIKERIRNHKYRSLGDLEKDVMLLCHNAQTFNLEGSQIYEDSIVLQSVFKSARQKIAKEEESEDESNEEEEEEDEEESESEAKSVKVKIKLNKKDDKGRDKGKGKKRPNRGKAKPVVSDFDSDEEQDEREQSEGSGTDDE

Structure (SMILES) | BRM HiBit Degradation Maximum (%) (HiBit-BRM fusion protein) | DC50 (HiBit-BRM fusion protein) [nM] | Dmax [1] [%] | DC50 [1] [nM]
Cc1ncsc1-c1ccc(CNC(=O)[C@@H]2C[C@@H](O)CN2C(=O)[C@@H](NC(=O)CCNC23CC(c4cc5cc(-c6ccccc6O)nnc5[nH]4)(C2)C3)C(C)(C)C)cc1 (racemic) [Compound 296] | A (“A” indicates maximum degradation ≥ 75%) | > 1000 | > 50 | > 1000
Cc1ncsc1-c1ccc([C@H](C)NC(=O)[C@@H]2C[C@@H](O)CN2C(=O)[C@@H](c2cc(N3CCC(CN4CCc5[nH]c6nnc(-c7ccccc7O)cc6c5C4)CC3)no2)C(C)C)cc1 (racemic) [Compound 193, (2S,4R)-4-hydroxy-1-((R)-2-(3-(4-((3-(2-hydroxyphenyl)-5,7,8,9-tetrahydro-6H-pyrido [3′,4′:4,5]pyrrolo[2,3-c]pyridazin-6-yl)methyl)piperidin-1-yl)isoxazol-5-yl)-3-methylbutanoyl)-N-((S)-1-(4-(4-methylthiazol-5-yl)phenyl)ethyl)pyrrolidine-2-carboxamide] | A (“A” indicates maximum degradation ≥ 75%) | > 10 | > 50 | > 100
Cc1ncsc1-c1ccc([C@H](C)NC(=O)[C@@H]2C[C@@H](O)CN2C(=O)[C@@H](c2cc(OCCN3Cc4[nH]c5nnc(-c6ccccc6O)cc5c4C3)no2)C(C)C)cc1 [Compound 123, (2S,4R)-4-hydroxy-1-[(2R)-2-(3-{2-[11-(2-hydroxyphenyl)-4,7,9,10-tetraazatricyclo[6.4.0.0^{2,6}]dodeca-1(12),2(6),8,10-tetraen-4-yl]ethoxy}-1,2-oxazol-5-yl)-3-methylbutanoyl]-N-[(1S)-1-[4-(4-methyl-1,3-thiazol-5-yl)phenyl]ethyl]pyrrolidine-2-carboxamide] | A (“A” indicates maximum degradation ≥ 75%) | > 100 | < 50 | –
O=C1CCC(N2C(=O)c3ccc(N4CCN(CCC(=O)N5CC(c6cc7cc(-c8ccccc8O)nnc7[nH]6)C5)CC4)cc3C2=O)C(=O)N1 (stereo not shown) [Compound 26, 2-(2,6-dioxopiperidin-3-yl)-5-(4-(3-(3-(3-(2-hydroxyphenyl)-7H-pyrrolo[2,3-c]pyridazin-6-yl)azetidin-1-yl)-3-oxopropyl)piperazin-1-yl)isoindoline-1,3-dione] | C (“C” indicates maximum degradation < 50%) | – | < 50 | –
Cc1ncsc1-c1ccc([C@H](C)NC(=O)[C@@H]2C[C@@H](O)CN2C(=O)C(c2cc(N3CCC(C(=O)N4CC(c5c[nH]c6nnc(-c7ccccc7O)cc56)C4)CC3)no2)C(C)C)cc1 (mixture of isomers) [Compound 236, (2S,4R)-4-hydroxy-1-((R)-2-(3-(4-(3-(3-(2-hydroxyphenyl)-7H-pyrrolo[2,3-c]pyridazin-5-yl)azetidine-1-carbonyl)piperidin-1-yl)isoxazol-5-yl)-3-methylbutanoyl)-N-((S)-1-(4-(4-methylthiazol-5-yl)phenyl)ethyl)pyrrolidine-2-carboxamide] | C (“C” indicates maximum degradation < 50%) | – | < 50 | –
Cc1ncsc1-c1ccc([C@H](C)NC(=O)[C@@H]2C[C@@H](O)CN2C(=O)[C@@H](c2cc(OCCN3CC(CCc4cc5cc(-c6ccccc6O)nnc5[nH]4)C3)no2)C(C)C)cc1 (racemic) [Compound 244, (2S,4R)-4-hydroxy-1-((R)-2-(3-(2-(3-(2-(3-(2-hydroxyphenyl)-7H-pyrrolo[2,3-c]pyridazin-6-yl)ethyl)azetidin-1-yl)ethoxy)isoxazol-5-yl)-3-methylbutanoyl)-N-((S)-1-(4-(4-methylthiazol-5-yl)phenyl)ethyl)pyrrolidine-2-carboxamide] | A (“A” indicates maximum degradation ≥ 75%) | > 100 | > 50 | –
Cc1ncsc1-c1ccc([C@H](C)NC(=O)[C@@H]2C[C@@H](O)CN2C(=O)[C@@H](c2cc(N3CC(CN4CC(c5cc6cc(-c7ccccc7O)nnc6[nH]5)C4)C3)no2)C(C)C)cc1 (single isomer, unassigned) [Compound 163] | A (“A” indicates maximum degradation ≥ 75%) | > 10 | > 50 | > 100
Cc1ncsc1-c1ccc([C@H](C)NC(=O)[C@@H]2C[C@@H](O)CN2C(=O)[C@H](c2cc(N3CCN(C(=O)c4cc5cc(-c6ccccc6O)nnc5[nH]4)CC3)no2)C(C)C)cc1 (racemic) [Compound 252, (2S,4R)-4-hydroxy-1-((S)-2-(3-(4-(3-(2-hydroxyphenyl)-7H-pyrrolo[2,3-c]pyridazine-6-carbonyl)piperazin-1-yl)isoxazol-5-yl)-3-methylbutanoyl)-N-((S)-1-(4-(4-methylthiazol-5-yl)phenyl)ethyl)pyrrolidine-2-carboxamide] | C (“C” indicates maximum degradation < 50%) | – | < 50 | –
O=C1CCC(N2C(=O)c3cccc(NCCCCCCCCC(=O)N4CC(c5cc6cc(-c7ccccc7O)nnc6[nH]5)C4)c3C2=O)C(=O)N1 (stereo not shown) [Compound 33, 2-(2,6-dioxopiperidin-3-yl)-4-((9-(3-(3-(2-hydroxyphenyl)-7H-pyrrolo[2,3-c]pyridazin-6-yl)azetidin-1-yl)-9-oxononyl)amino)isoindoline-1,3-dione] | C (“C” indicates maximum degradation < 50%) | – | < 50 | –
Cc1ncsc1-c1ccc(CNC(=O)[C@@H]2C[C@@H](O)CN2C(=O)[C@@H](NC(=O)CCCCC(=O)N[C@@H]2CCc3[nH]c4nnc(-c5ccccc5O)cc4c3C2)C(C)(C)C)cc1 [Compound 170, N1-((S)-1-((2S,4R)-4-hydroxy-2-((4-(4-methylthiazol-5-yl)benzyl)carbamoyl)pyrrolidin-1-yl)-3,3-dimethyl-1-oxobutan-2-yl)-N6-((R)-3-(2-hydroxyphenyl)-6,7,8,9-tetrahydro-5H-pyridazino[3,4-b]indol-6-yl)adipamide] | C (“C” indicates maximum degradation < 50%) | – | < 50 | –
Cc1ncsc1-c1ccc([C@H](C)NC(=O)[C@@H]2C[C@@H](O)CN2C(=O)[C@@H](c2cc(N3CCN(C(=O)[C@@H]4CCc5[nH]c6nnc(-c7ccccc7O)cc6c5C4)CC3)no2)C(C)C)cc1 (single isomer, unassigned) [Compound 192] | A (“A” indicates maximum degradation ≥ 75%) | > 10 | < 50 | –
Cc1ncsc1-c1ccc([C@H](C)NC(=O)[C@@H]2C[C@@H](O)CN2C(=O)[C@@H](c2cc(OCCN3CCC(c4c(C)[nH]c5nnc(-c6ccccc6O)cc45)CC3)no2)C(C)C)cc1 (racemic) [Compound 265, (2S,4R)-4-hydroxy-1-[(2R)-2-[3-(2-{4-[3-(2-hydroxyphenyl)-6-methyl-7H-pyrrolo[2,3-c]pyridazin-5-yl]piperidin-1-yl}ethoxy)-1,2-oxazol-5-yl]-3-methylbutanoyl]-N-[(1S)-1-[4-(4-methyl-1,3-thiazol-5-yl)phenyl]ethyl]pyrrolidine-2-carboxamide] | A (“A” indicates maximum degradation ≥ 75%) | > 100 | < 50 | –
